Test results published in patent publication US9522891B2, “Pyridazine derivatives and use thereof as medicaments for treating microRNA viral infection” (INSTITUTE OF PHARMACOLOGY AND TOXICOLOGY ACADEMY OF …, priority 2010, dated 2016).
Values after ≈ are worked out from the molar mass of the structure shown. Values belong to the compound of their own block, whether it stands above or below them.

Tests used:
HeLa cells = assay: Determination of the maximum nontoxic dose of the compound; type: cell-based; settings: observed each 24 h for 3 days
Protocol: The drug was dissolved in DMSO, diluted with cell maintenance medium by 20 times, then diluted stepwise by 2 times to form working solutions with different concentrations. HeLa cells were inoculated on 96-well plate in an amount of 10,000 (0.1 mL) per well, added with 0.1 mL maintenance medium, incubated at 37° C. in adherence manner, sucked to remove maintenance medium, replaced it with 0.2 mL of compound working solution, and maintenance medium was used as control. The growth of cell was observed each 24 h, for 3 days.

[1] = Bioorg Med Chem. 2009, 17: 621-624; cited from earlier work
rhinovirus 3 (HRV-3) [2] = assay: Therapeutic administration, cell protection from CPE; type: cell-based
rhinovirus 3 (HRV-3) [3] = assay: Maximum viral inhibition concentration; type: cell-based; settings: compound concentration giving 100% inhibition of TCID50 about 100; virus added in doubling manner
rhinovirus 3 (HRV-3) [4] = assay: Measurement of inhibition index of compound; type: cell-based; settings: highest dilution times of viral inhibition/nontoxic limit dilution times
Protocol: The inhibition index of drug was calculated: inhibition index=highest dilution times of viral inhibition/nontoxic limit dilution times.

rhinovirus (HRV) = settings: cited from earlier work
rhinovirus 3 (HRV-3) [5] = assay: Measurement of half effective concentration (therapy); type: cell-based; settings: Enterovirus, HRV3, HeLa cells, TCID50 about 100, 48 h, prevents 50% cells from CPE
rhinovirus 3 (HRV-3) [6] = assay: Prophylactic administration, cell protection from CPE; type: cell-based; settings: 100 ng/ml, TCID50 about 100, 3 days

SMILES: CCOc1ccc(OCCN2CCN(c3cc(Cl)nnc3Cl)CC2)cc1 [Control 2, 3,6-dichloro-4-{4-[2-(4-ethoxylphenoxy)ethyl]piperazin-1-yl}pyridazine]
Maximum nontoxic dose (HeLa cells): 31.3 µg/mL
toxicity [1]: relatively low toxicity
protection effects (rhinovirus 3 (HRV-3) [2]; therapeutic administration condition): good protection effects
Cell protection rate (rhinovirus 3 (HRV-3) [2]; therapeutic administration, 100 ng/mL, TCID50 100, HeLa cells, 48 h): 100%
Maximum inhibition virus titer (rhinovirus 3 (HRV-3) [3]): ≦200 TCID50
Inhibition index (rhinovirus 3 (HRV-3) [4]): 1/625
index of selectivity (rhinovirus (HRV); Bioorg Med Chem. 2009, 17: 621-624): relatively high index of selectivity
inhibition activity to HRV (rhinovirus (HRV); compared to Pirodavir, Bioorg Med Chem. 2009, 17: 621-624): activity comparable to Pirodavir
EC50 (rhinovirus 3 (HRV-3) [5]): 0.025 µg/mL (≈ 0.0629 µM)
protection effects in preventing phagocytosis (CPE) (rhinovirus 3 (HRV-3) [6]): good protection effects

SMILES: CC(C)c1ccc(OCCCN2CCN(c3ccc(Cl)nn3)CC2)cc1 [Example 4, 3-{4-[3-(4-isopropylphenoxy)propyl]piperazin-1-yl}-6-chloropyridazine]
melting point: 125 to 127 °C

SMILES: COC(=O)c1ccc(OCCCN2CCN(c3ccc(Cl)nn3)CC2)cc1 [Example 5, 4-{3-[4-(6-chloropyridazin-3-yl)piperazin-1-yl]propoxy} benzoic acid methyl ester]
melting point: 128 to 130 °C

SMILES: CCOC(=O)c1ccc(OCCCN2CCN(c3ccc(Cl)nn3)CC2)cc1 [Example 6, 4-{3-[4-(6-chloropyridazin-3-yl)piperazin-1-yl]propoxy}benzoic acid ethyl ester]
melting point: 125 to 127 °C

SMILES: CCOC(=O)c1ccc(OCCC2CCN(c3ccc(C)nn3)CC2)cc1 [Pirodavir]
activity against rhinovirus (HRV) (rhinovirus (HRV); in vivo and in vitro, literature): significant activity

Second part, the compound after the results:

melting point: 125 to 127 °C
SMILES: CCOc1ccc(OCCCN2CCN(c3ccc(Cl)nn3)CC2)cc1 [Example 1, 3-{4-[3-(4-ethoxylphenoxy)propyl]piperazin-1-yl}-6-chloropyridazine]

melting point: 129 to 131 °C
SMILES: Cc1ccc(OCCCN2CCN(c3ccc(Cl)nn3)CC2)cc1 [Example 2, 3-{4-[3-(4-methylphenoxy)propyl]piperazin-1-yl}-6-chloropyridazine]

melting point: 123 to 125 °C
SMILES: CCc1ccc(OCCCN2CCN(c3ccc(Cl)nn3)CC2)cc1 [Example 3, 3-{4-[3-(4-ethylphenoxy)propyl]piperazin-1-yl}-6-chloropyridazine]
